The TGI is the concentration giving total growth inhibition. A higher TGI goes with less potent growth arrest. In general, GI50 refers to the concentration that inhibits growth by half.

These results are taken from PubChem BioAssay (NCI).

Test systems include OVCAR-3 ovarian; MALME-3M melanoma; OVCAR-4 ovarian; NCI-H522 lung; SF-539 CNS; NCI-H23 lung; SN12C renal; IGROV1 ovarian; T-47D breast; CCRF-CEM leukemia.
What all share (assay): DTP human tumour cell line panel, 48 h

Several values for one entry are separate records, joined by “and”; a condition that tells them apart may be missing. Identical values can stand only once.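 How tested: cells in 96-well plates exposed to compound for 48 hours at five concentrations. GI50 marks 50% less growth. TGI is the concentration that stops growth completely.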

For the molecule `CC(=O)OCC(=O)O[C@@H]1[C@H]2[C@@H](OC(=O)c3ccccc3)[C@@H](C)C[C@]2(O)[C@H](OC(C)=O)[C@@]2(C)C[C@]1(OC(C)=O)C[C@H]1C(=O)C(C)(C)[C@@H](OC(C)=O)[C@@H]12`, the TGI with OVCAR-3 ovarian, with MALME-3M melanoma, in the test with OVCAR-4 ovarian, in the test with NCI-H522 lung, in the test on SF-539 CNS and in the test on NCI-H23 lung was over 25 µM each time. In addition, the TGI in the test on SN12C renal, in the test on IGROV1 ovarian, with T-47D breast and in the test with CCRF-CEM leukemia was over 25 µM throughout.

Take `CCCCCCCCCCCCNC(=O)CCC(NC(=O)c1ccc(N(C)Cc2cnc3nc(N)nc(N)c3n2)cc1)C(=O)NCCCCCCCCCCCC` (centres undefined): the TGI in the test on OVCAR-3 ovarian, in the test with MALME-3M melanoma, with OVCAR-4 ovarian, in the test on NCI-H522 lung, with SF-539 CNS and in the test on NCI-H23 lung was over 100 µM each time. Moreover, the TGI was over 100 µM in the test on SN12C renal, over 100 µM in the test on IGROV1 ovarian, 61.5 µM in the test on T-47D breast and 66.7 µM with CCRF-CEM leukemia.

With `O=C1/C(=C/c2ccncc2)C(n2cccc2)c2c(Br)sc(Br)c21` (centres undefined), the TGI in the test with OVCAR-3 ovarian was 3.38 µM; in the test on MALME-3M melanoma, 10.9 µM; with NCI-H522 lung it was 30.5 µM; in the test on SF-539 CNS it was 17.1 µM; in the test with NCI-H23 lung, 11.6 µM; in the test on SN12C renal, 16.4 µM. For the same molecule, the TGI with IGROV1 ovarian worked out at 4.67 µM; in the test on T-47D breast, 16.4 µM; in the test with CCRF-CEM leukemia, 4.99 µM.

As to `CCCCN1C(=O)CC2[C@@H]3CCc4cc(OC)ccc4C3CC[C@]2(C)C1=O` (some centres undefined), the TGI in the test on OVCAR-3 ovarian, in the test with MALME-3M melanoma, with OVCAR-4 ovarian, in the test with SF-539 CNS, in the test with NCI-H23 lung and in the test on SN12C renal was over 10 µM in each case. The TGI in the test with IGROV1 ovarian, in the test on T-47D breast and in the test on CCRF-CEM leukemia was over 10 µM in each case.

In the case of `Cc1cc(OCc2nnc3sc(NC(=O)c4ccccc4)nn23)ccc1Cl`, the TGI is over 100 µM in the test on OVCAR-3 ovarian; 42.2 µM in the test on MALME-3M melanoma; over 100 µM in the test on OVCAR-4 ovarian; 61 µM with NCI-H522 lung; over 100 µM with SF-539 CNS; 82.2 µM with NCI-H23 lung. Further, the TGI is over 100 µM in the test with SN12C renal, 68 µM with IGROV1 ovarian, over 100 µM with T-47D breast and over 100 µM with CCRF-CEM leukemia.

On to `COc1ccc(C2=C(Cl)C(=O)O/C2=C\c2ccc(OC)c(Br)c2)cc1Cl`, for which the TGI in the test on OVCAR-3 ovarian is 47 µM; with MALME-3M melanoma it was over 100 µM; with OVCAR-4 ovarian, over 100 µM; in the test on NCI-H522 lung it was 57.5 µM; with SF-539 CNS, 30.6 µM; with NCI-H23 lung it was 32 µM. Further, the TGI is over 100 µM in the test on IGROV1 ovarian, over 100 µM in the test on T-47D breast and 79.2 µM in the test with CCRF-CEM leukemia.

With `NCCCCNCCCNC(=O)CNC(=O)CC(O)C(N)CCCC(NC(=O)C(CN)NC(=O)C(O)CNC(=O)CC(N)c1ccc(O)cc1)C(=O)O` (centres undefined), the TGI in the test with OVCAR-3 ovarian, with MALME-3M melanoma, with OVCAR-4 ovarian, with NCI-H522 lung, in the test with SF-539 CNS and in the test on NCI-H23 lung was over 10 µM in each case. For the same molecule, the TGI in the test on SN12C renal, in the test on IGROV1 ovarian, with T-47D breast and in the test on CCRF-CEM leukemia was over 10 µM in each case.

`COc1ccc(C2Oc3c(OC)cc(CCCO)cc3C2CO)cc1OC` (centres undefined): the TGI in the test with OVCAR-3 ovarian, with MALME-3M melanoma, with OVCAR-4 ovarian, in the test with NCI-H522 lung, in the test on SF-539 CNS and in the test on NCI-H23 lung was over 100 µM in each case. The TGI with SN12C renal, in the test with IGROV1 ovarian, in the test with T-47D breast and in the test on CCRF-CEM leukemia was over 100 µM in each case. The GI50 in the test on CCRF-CEM leukemia was 37.9 µM and > 100 µM.

Take `COc1ccc(OC/C(N=Cc2ccncc2)=N/NC(=O)c2ccncc2)cc1`: the TGI with OVCAR-3 ovarian, in the test on MALME-3M melanoma, in the test with OVCAR-4 ovarian, in the test with NCI-H522 lung, with SF-539 CNS and in the test with NCI-H23 lung was over 100 µM throughout. For the same molecule, the TGI with SN12C renal, in the test on IGROV1 ovarian, in the test on T-47D breast and in the test with CCRF-CEM leukemia was over 100 µM each time.

Turning to `NC(N)=NS(=O)(=O)c1ccc(NC(=O)c2cccc3c(NNc4ccc(S(N)(=O)=O)cc4)c4ccccc4nc23)cc1`, the TGI in the test on OVCAR-3 ovarian was over 100 µM; in the test with MALME-3M melanoma it was 88.8 µM; in the test on OVCAR-4 ovarian it was over 100 µM; with NCI-H522 lung, 91.6 µM; in the test on SF-539 CNS, over 100 µM; in the test with NCI-H23 lung, over 100 µM. Besides, the TGI in the test on SN12C renal is over 100 µM; in the test with IGROV1 ovarian, over 100 µM; in the test on T-47D breast, 79.1 µM; with CCRF-CEM leukemia it was over 100 µM.

On to `CCOc1ccc(NCC2CC/C(=C\C=C\c3ccccc3)C2=O)cc1` (centres undefined), for which the TGI amounted to 34.4 µM in the test with OVCAR-3 ovarian; 57.8 µM with MALME-3M melanoma; 73.9 µM in the test with OVCAR-4 ovarian; 32.3 µM in the test on NCI-H522 lung; 37.8 µM in the test with SF-539 CNS; 39.3 µM with NCI-H23 lung. The TGI in the test on SN12C renal is 35.4 µM; in the test with IGROV1 ovarian, 17.5 µM; with T-47D breast it was 45.3 µM; in the test with CCRF-CEM leukemia it was over 100 µM.

As for `Cc1nc(SCC(N)=O)c2sc(=S)n(-c3ccccc3)c2n1`, the TGI in the test on OVCAR-3 ovarian, in the test on MALME-3M melanoma, in the test with OVCAR-4 ovarian, in the test on NCI-H522 lung, in the test with SF-539 CNS and in the test on NCI-H23 lung was over 10 µM each time. In addition, the TGI with SN12C renal, with IGROV1 ovarian, in the test on T-47D breast and in the test with CCRF-CEM leukemia was over 10 µM in each case.

For the molecule `CCCCCCc1cc2cc(-c3csc(-c4ccc(OC)cc4)n3)c(=O)oc2cc1O`, the TGI in the test with OVCAR-4 ovarian is 7.39 µM; with SF-539 CNS, 25.6 µM; in the test with SN12C renal, 23.6 µM; with IGROV1 ovarian it was 19.1 µM; with T-47D breast, 24.1 µM; in the test with CCRF-CEM leukemia, over 100 µM.
